Experimental data reported in ChEMBL document CHEMBL5154780, “Target Fishing Reveals a Novel Mechanism of 1,2,4-Oxadiazole Derivatives Targeting Rpn6, a Subunit of 26S Proteasome” (J Med Chem, 2022).
The source made the active and inactive calls. No cut-off for these calls is given here. Where a SMILES comes first, the peptide text is derived from it. The star is where a group is joined. Cbz = O=C(OCc1ccccc1)*

What was measured:
[1] = molecular target: T1, Nuclear factor erythroid 2-related factor 2 (Rattus norvegicus) (UniProt O54968); test: Inhibition of Nrf2 degradation in rat PC-12 cells assessed as accumulation of ubiquitinated Nrf2 at 40 uM incubated for 6 hrs in presence of proteasome inhibitor MG132 by Western blot analysis; format: cell-based
T1 sequence (whole entry): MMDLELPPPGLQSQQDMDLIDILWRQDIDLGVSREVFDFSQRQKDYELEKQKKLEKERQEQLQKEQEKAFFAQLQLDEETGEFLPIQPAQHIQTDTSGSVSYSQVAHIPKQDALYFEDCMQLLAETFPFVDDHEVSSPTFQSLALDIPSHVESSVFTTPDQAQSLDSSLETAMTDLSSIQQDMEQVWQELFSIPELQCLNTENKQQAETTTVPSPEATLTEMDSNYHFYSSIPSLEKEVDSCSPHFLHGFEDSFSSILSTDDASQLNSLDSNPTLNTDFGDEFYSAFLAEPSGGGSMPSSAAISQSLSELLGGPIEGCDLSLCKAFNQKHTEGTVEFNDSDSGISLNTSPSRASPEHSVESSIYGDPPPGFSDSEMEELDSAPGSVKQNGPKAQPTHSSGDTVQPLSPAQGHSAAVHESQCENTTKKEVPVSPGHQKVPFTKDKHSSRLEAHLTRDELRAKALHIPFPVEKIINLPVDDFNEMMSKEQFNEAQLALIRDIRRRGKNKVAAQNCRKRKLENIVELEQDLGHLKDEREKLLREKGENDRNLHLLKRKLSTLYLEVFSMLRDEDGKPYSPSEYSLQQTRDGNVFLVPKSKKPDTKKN

[2] = test system: HepG2-ARE-C8; test: Activation of Nrf2-ARE pathway in human HepG2-ARE-C8 cells assessed as fold upregulation of ARE-inducing luciferase activity at 10 uM measured after 24 hrs by luciferase reporter gene assay; format: cell-based; details: filed as activator
[3] = molecular target: T1, Nuclear factor erythroid 2-related factor 2 (Rattus norvegicus); test: Inhibition of Nrf2 degradation in rat PC-12 cells assessed as accumulation of ubiquitinated Nrf2 at 40 uM incubated for 6 hrs by Western blot analysis; format: cell-based
[4] = test system: THP-1; test: Antiinflammatory activity in PMA-differentiated and LPS-stimulated human THP-1 cell model assessed as inhibition of NLRP3 inflammasome-driven IL-1beta production at 45 uM incubated for 24 hrs followed by LPS stimulation for 3 hrs and ATP addition for 1 hr by ELISA; format: functional; design: scale not given: the % may be the effect or the level left
[5] = test system: HepG2-ARE-C8; test: Activation of Nrf2-ARE pathway in human HepG2-ARE-C8 cells assessed as fold upregulation of ARE-inducing luciferase activity at 20 uM measured after 24 hrs by luciferase reporter gene assay; format: cell-based; details: filed as activator
[6] = test system: THP-1; test: Antiinflammatory activity in PMA-differentiated and LPS-stimulated human THP-1 cell model assessed as inhibition of NLRP3 inflammasome-driven IL-1beta production at 30 uM incubated for 24 hrs followed by LPS stimulation for 3 hrs and ATP addition for 1 hr by ELISA; format: functional; design: scale not given: the % may be the effect or the level left
[7] = test system: HepG2-ARE-C8; test: Activation of Nrf2-ARE pathway in human HepG2-ARE-C8 cells assessed as fold upregulation of ARE-inducing luciferase activity at 160 uM measured after 24 hrs by luciferase reporter gene assay; format: cell-based; details: filed as activator
[8] = molecular target: 26S proteasome non-ATPase regulatory subunit 11 (Homo sapiens, UniProt O00231); test: Binding affinity to biotinylated recombinant Rpn6 (unknown origin) assessed as dissociation constant by biolayer interferometry analysis
[9] = test system: THP-1; test: Antiinflammatory activity in PMA-differentiated and LPS-stimulated human THP-1 cell model assessed as inhibition of NLRP3 inflammasome-driven IL-1beta production at 15 uM incubated for 24 hrs followed by LPS stimulation for 3 hrs and ATP addition for 1 hr by ELISA; format: functional; design: scale not given: the % may be the effect or the level left
[10] = molecular target: T1, Nuclear factor erythroid 2-related factor 2 (Rattus norvegicus); test: Inhibition of Nrf2 degradation in rat PC-12 cells assessed as increase in ubiquitinated Nrf2 at 40 uM incubated for 6 hrs by co-immunoprecipitation based Western blot analysis; format: cell-based
[11] = Cytotoxicity against human THP-1 cells assessed as reduction in cell viability measured after 24 hrs by MTT assay; format: toxicity, cell-based
[12] = test system: HepG2-ARE-C8; test: Activation of Nrf2-ARE pathway in human HepG2-ARE-C8 cells assessed as fold upregulation of ARE-inducing luciferase activity at 80 uM measured after 24 hrs by luciferase reporter gene assay; format: cell-based; details: filed as activator
[13] = test system: HepG2-ARE-C8; test: Activation of Nrf2-ARE pathway in human HepG2-ARE-C8 cells assessed as fold upregulation of ARE-inducing luciferase activity at 40 uM measured after 24 hrs by luciferase reporter gene assay; format: cell-based; details: filed as activator
[14] = molecular target: T1, Nuclear factor erythroid 2-related factor 2 (Rattus norvegicus); test: Inhibition of Nrf2 degradation in rat PC-12 cells assessed as increase in ubiquitinated Nrf2 at 40 uM incubated for 6 hrs in presence of proteasome inhibitor MG132 by co-immunoprecipitation based Western blot analysis; format: cell-based
[15] = molecular target: T1, Nuclear factor erythroid 2-related factor 2 (Rattus norvegicus); test: Activation of Nrf2 in rat PC-12 cells assessed as upregulation of Nrf2 protein expression measured after 24 hrs by Western blot analysis; format: cell-based; details: filed as activator, dose 10-40 µM, DDE = dose-dependent effect
[16] = molecular target: T1, Nuclear factor erythroid 2-related factor 2 (Rattus norvegicus); test: Activation of Nrf2 in rat PC-12 cells assessed as upregulation of NQO1 protein expression measured after 24 hrs by Western blot analysis; format: cell-based; details: filed as activator, dose 10-40 µM, DDE = dose-dependent effect
[17] = molecular target: 26S proteasome non-ATPase regulatory subunit 11 (Rattus norvegicus) (UniProt F1LMZ8); test: Binding affinity to biotinylated recombinant Rpn6 in rat PC-12 cells at 100 to 200 uM incubation for overnight by pull-down assay based SDS-PAGE analysis; format: cell-based; details: filed as activator, dose 100-200 µM, DDE = dose-dependent effect
[18] = test system: PC-12; test: Cytoprotective activity against H2O2-induced oxidative damage in rat PC-12 assessed as increase in cell viability preincubated for 24 hrs followed by H2O2 stimulation for 3 hrs by MTT assay; format: functional, cell-based; details: dose 5-80 µM, DDE = dose-dependent effect
[19] = molecular target: T1, Nuclear factor erythroid 2-related factor 2 (Rattus norvegicus); test: Activation of Nrf2 in rat PC-12 cells assessed as upregulation of Nrf2 in nucleus at 20 uM measured after 4 hrs by western blot analysis; format: cell-based; details: filed as activator
[20] = molecular target: T1, Nuclear factor erythroid 2-related factor 2 (Rattus norvegicus); test: Activation of Nrf2 in rat PC-12 cells assessed as upregulation of HO-1 protein expression measured after 24 hrs by Western blot analysis; format: cell-based; details: filed as activator, dose 10-40 µM, DDE = dose-dependent effect
[21] = molecular target: T1, Nuclear factor erythroid 2-related factor 2 (Rattus norvegicus); test: Activation of Nrf2 in rat PC-12 cells assessed as reduction of Nrf2 in cytoplasm at 20 uM measured after 4 hrs by western blot analysis; format: cell-based; details: filed as activator
[22] = molecular target: T1, Nuclear factor erythroid 2-related factor 2 (Rattus norvegicus); test: Inhibition of Nrf2 degradation in rat PC-12 cells assessed as accumulation of ubiquitinated Nrf2 at 10 uM incubated for 6 hrs by Western blot analysis; format: cell-based
[23] = test system: PC-12; test: Induction of cell membrane permeability in rat PC-12 cells at 60 uM measured after 10 hrs by fluorescence microscopic analysis; format: cell-based
[24] = molecular target: 26S proteasome non-ATPase regulatory subunit 11 (Rattus norvegicus) (UniProt F1LMZ8); test: Binding affinity to recombinant Rpn6 in rat PC-12 cells at 60 uM measured after 12 hrs by DAPI staining based fluorescence microscope assay; format: cell-based; details: filed as activator

26S proteasome non-ATPase regulatory subunit 11, sequence (O00231 whole entry): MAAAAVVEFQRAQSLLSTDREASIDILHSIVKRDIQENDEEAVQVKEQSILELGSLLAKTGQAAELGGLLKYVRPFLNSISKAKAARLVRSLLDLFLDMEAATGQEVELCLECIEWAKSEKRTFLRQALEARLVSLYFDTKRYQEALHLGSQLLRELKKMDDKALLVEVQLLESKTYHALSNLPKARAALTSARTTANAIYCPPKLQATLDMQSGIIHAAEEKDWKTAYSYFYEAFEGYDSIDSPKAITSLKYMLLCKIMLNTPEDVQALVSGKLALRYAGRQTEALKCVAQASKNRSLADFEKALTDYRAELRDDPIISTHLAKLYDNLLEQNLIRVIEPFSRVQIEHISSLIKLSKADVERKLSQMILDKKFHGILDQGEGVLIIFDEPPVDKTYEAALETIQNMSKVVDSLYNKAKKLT
26S proteasome non-ATPase regulatory subunit 11 (Rattus norvegicus), sequence (F1LMZ8 whole entry): as the sequence (O00231 whole entry) above

| SMILES | fold change (FC) [2] | Activity [4] [%] | fold change (FC) [5] | Activity [6] [%] | fold change (FC) [7] | Activity [9] [%] | IC50 at 24 h [11] [µM] | fold change (FC) [12] | fold change (FC) [13] | also measured |
| --- | --- | --- | --- | --- | --- | --- | --- | --- | --- | --- |
| Fc1ccc(-c2nc(-c3ccc4nc[nH]c4c3)no2)cc1 | 4.53 | 102.6 | 4.19 | 98.39 | 31.5 | 87.24 | > 100 | 19.3 | 7.5 | Activity [1]: Active; Activity [3]: Active; Kd [8]: 8.53 µM; Activity [10]: Active; Activity [14]: Active |
| CCNC(=O)CCCCCNC(C)=O | 1.17 | 2.89 | 1.17 | 3.52 | 1.22 | -2.73 | > 100 | 1.22 | 1.41 | – |
| Cc1ccc(-c2noc(-c3ccc(F)cc3NC(=O)CCCCCNC(=O)CCCC[C@@H]3SC[C@@H]4NC(=O)N[C@@H]43)n2)cn1 | 4.96 | 97.72 | 5.59 | 64.61 | 11.8 | 33.81 | > 100 | 7.1 | 6.69 | Activity [15]: Dde; Activity [16]: Dde; Activity [17]: Dde; Activity [18]: Dde; Activity [19]: Active; Activity [20]: Dde; Kd [8]: 1.38 µM; Activity [21]: Active |
| CC(C)C[C@@H](C=O)NC(=O)[C@H](CC(C)C)NC(=O)[C@H](CC(C)C)NC(=O)OCc1ccccc1 (Cbz-Leu-Leu-Leu-aldehyde) | – | – | – | – | – | – | – | – | – | Activity [22]: Active |
| Cc1ccc(-c2noc(-c3ccc(F)cc3NC(=O)CCCCCNC(=S)Nc3ccc4c(c3)C(=O)OC43c4ccc(O)cc4Oc4cc(O)ccc43)n2)cn1 | 2.62 | 89.34 | 2.28 | 77.63 | 6.42 | 67.9 | > 100 | 2.71 | 2.3 | Activity [23]: Active; Activity [24]: Active |
| O=C(O)CCCC[C@@H]1SC[C@@H]2NC(=O)N[C@@H]21 | 1.55 | – | 1.12 | – | 1.55 | – | – | 1.45 | 1.18 | – |
| Cc1ccc(-c2noc(-c3ccc(F)cc3)n2)cn1 | 2.08 | 85.46 | 2.75 | 53.91 | 29.6 | 49.86 | > 100 | 31.7 | 7.14 | Activity [15]: Dde; Activity [16]: Dde; Activity [19]: Active; Activity [20]: Dde; Activity [21]: Active |
| CC(C)(C)c1cc(O)ccc1O [E319] | 2.94 | 98.29 | 3.13 | 58.58 | 15.9 | 50.88 | > 100 | 12 | 2.98 | – |
